Data from patent US20230257374A1, “NOVEL KRAS G12C PROTEIN INHIBITOR, PREPARATION METHOD THEREFOR, AND USE THEREOF” (INNOVENT BIOLOGICS (SUZHOU) CO., LTD., priority 2019, published 2023).

biological target: T1, KRAS G12C protein (Homo sapiens, UniProt P01116, G12C); experiment: ERK protein phosphorylation assay (p-ERK) in H358 cells; assay type: cell-based; parameters: scale not given here; conditions: H358 cells expressing KRAS G12C protein, 3 h incubation with compound; read-out: IC50, inhibiting phosphorylation of KRAS G12C protein-mediated downstream signaling (p-ERK)
T1 construct: H358 cells (ATCC, CRL-5807) expressing KRAS G12C protein; host or cells: H358 (NCI-H358) cells
Protocol: The cells were cultured in a 5% CO2 cell incubator for 16 h. The serially diluted compound was added to the cell medium with Echo550 at a final DMSO concentration of 0.5%, and the incubation was continued for 3 h. Then 8% paraformaldehyde (Solarbio, P1112) was added at 40 μL/well, followed by incubation at room temperature for 20 min. After one washing with PBS, cold 100% methanol was added at 40 μL/well for permeabilization for 10 min. […] Washing with PBST was performed 3 times, with 2 min of incubation for each washing. […] Washing with PBST was performed 3 times, with 2 min of incubation for each washing. Finally, the cell culture plate was inverted and centrifuged at 1000 rpm for 1 min, after which fluorescence signals were read using Odyssey CLx.

T1 sequence (P01116 1-188 isoform P01116-2 G12C): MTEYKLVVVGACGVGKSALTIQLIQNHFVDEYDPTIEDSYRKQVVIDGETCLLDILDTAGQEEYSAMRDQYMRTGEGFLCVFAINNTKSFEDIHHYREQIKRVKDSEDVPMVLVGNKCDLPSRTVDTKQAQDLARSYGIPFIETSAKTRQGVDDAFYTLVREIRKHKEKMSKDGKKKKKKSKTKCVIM

| SMILES | IC50 |
| --- | --- |
| [2H]C([2H])([2H])c1cccc2cccc(N3CCc4c(nc(OC[C@@H]5CCCN5C)nc4N4CCN(C(=O)/C=C/CNC5CC5)[C@@H](C)C4)C3)c12 [Compound 3, (E)-4-(cyclopropylamino)-1-((S)-2-methyl-4-(7-(8-(methyl-d3)naphthalen-1-yl)-2-(((S)-1-methylpyrrolidin-2-yl)methoxy)-5,6,7,8-tetrahydropyrido[3,4-d]pyrimidin-4-yl)piperazin-1-yl)-2-buten-1-one] | < 1000 nM |
| [2H]C([2H])([2H])c1cccc2cncc(N3CCc4c(nc(OC[C@@H]5CCCN5C)nc4N4CCN(C(=O)C=C)[C@@H](CC#N)C4)C3)c12 [Compound 4, 2-((S)-1-acryloyl-4-(7-(5-(methyl-d3)isoquinolin-4-yl)-2-(((S)-1-methylpyrrolidin-2-yl)methoxy)-5,6,7,8-tetrahydropyrido[3,4-d]pyrimidin-4-yl)piperazin-2-yl)acetonitrile] | < 1000 nM |
| [2H]C([2H])([2H])c1cccc2cccc(N3CCc4c(nc(OC[C@@H]5CCCN5C)nc4N4CCN(C(=O)C(=C)F)C[C@@H]4C)C3)c12 [Compound 7, 2-fluoro-1-((S)-3-methyl-4-(7-(8-(methyl-d3)naphthalen-1-yl)-2-(((S)-1-methylpyrrolidin-2-yl)methoxy)-5,6,7,8-tetrahydropyrido[3,4-d]pyrimidin-4-yl)piperazin-1-yl)-2-propen-1-one] | < 1000 nM |
| [2H]C([2H])([2H])c1cccc2cccc(N3CCc4c(nc(OC[C@@H]5CCCN5C)nc4N4CCN(C(=O)C=C)C[C@@H]4C)C3)c12 [Compound 8, 1-((S)-3-methyl-4-(7-(8-(methyl-d3)naphthalen-1-yl)-2-(((S)-1-methylpyrrolidin-2-yl)methoxy)-5,6,7,8-tetrahydropyrido[3,4-d]pyrimidin-4-yl)piperazin-1-yl)-2-propen-1-one] | < 1000 nM |
| C=C(F)C(=O)N1CCN(c2nc(OC[C@@H]3CCCN3C)nc3c2CCN(c2cccc4cccc([13CH3])c24)C3)C[C@@H]1CC#N [Compound 11, 2-((S)-1-(2-fluoroacryloyl)-4-(7-(8-(methyl-^13C)naphthalen-1-yl)-2-(((S)-1-methylpyrrolidin-2-yl)methoxy)-5,6,7,8-tetrahydropyrido[3,4-d]pyrimidin-4-yl)piperazin-2-yl)acetonitrile] | < 1000 nM |
| C=C(F)C(=O)N1CCN(c2nc(OC[C@@H]3CCCN3C)nc3c2CCN(c2cccc4cccc([14CH3])c24)C3)C[C@@H]1CC#N [Compound 13, 2-((S)-1-(2-fluoroacryloyl)-4-(7-(8-(methyl-^14C)naphthalen-1-yl)-2-(((S)-1-methylpyrrolidin-2-yl)methoxy)-5,6,7,8-tetrahydropyrido[3,4-d]pyrimidin-4-yl)piperazin-2-yl)acetonitrile] | < 1000 nM |
| C=C(F)C(=O)N1CCN(c2nc(OC[C@@H]3CCCN3C)nc3c2CCN(c2cncc4cccc([14CH3])c24)C3)C[C@@H]1CC#N [Compound 14, 2-((S)-1-(2-fluoroacryloyl)-4-(7-(5-(methyl-^14C)isoquinolin-4-yl)-2-(((S)-1-methylpyrrolidin-2-yl)methoxy)-5,6,7,8-tetrahydropyrido[3,4-d]pyrimidin-4-yl)piperazin-2-yl)acetonitrile] | < 1000 nM |
| [2H]C([2H])([2H])N1CCC[C@H]1COc1nc2c(c(N3CCN(C(=O)/C=C/CNC4CC4)[C@@H](CC#N)C3)n1)CCN(c1cccc3cccc(C)c13)C2 [Compound 19, 2-((S)-1-((E)-4-(cyclopropylamino)-2-butenoyl)-4-(2-(((S)-1-(methyl-d3)pyrrolidin-2-yl)methoxy)-7-(8-methylnaphthalen-1-yl)-5,6,7,8-tetrahydropyrido[3,4-d]pyrimidin-4-yl)piperazin-2-yl)acetonitrile] | < 1000 nM |
| [2H]C([2H])([2H])N1CCC[C@H]1COc1nc2c(c(N3CCN(C(=O)C=C)[C@@H](CC#N)C3)n1)CCN(c1cncc3cccc(Cl)c13)C2 [Compound 20, 2-((S)-1-acryloyl-4-(7-(5-chloroisoquinolin-4-yl)-2-(((S)-1-(methyl-d3)pyrrolidin-2-yl)methoxy)-5,6,7,8-tetrahydropyrido[3,4-d]pyrimidin-4-yl)piperazin-2-yl)acetonitrile] | < 1000 nM |
| [2H]C([2H])([2H])c1cccc2cccc(N3CCc4c(nc(OC[C@@H]5CCCN5C([2H])([2H])[2H])nc4N4CCN(C(=O)C=C)C[C@@H]4C)C3)c12 [Compound 24, 1-((S)-3-methyl-4-(7-(8-(methyl-d3)naphthalen-1-yl)-2-(((S)-1-(methyl-d3)pyrrolidin-2-yl)methoxy)-5,6,7,8-tetrahydropyrido[3,4-d]pyrimidin-4-yl)piperazin-1-yl)-2-propen-1-one] | < 1000 nM |

More lines, now with the values ahead:

| IC50 | SMILES |
| --- | --- |
| < 1000 nM | [2H]C([2H])([2H])c1cccc2cccc(N3CCc4c(nc(OC[C@@H]5CCCN5C)nc4N4CCN(C(=O)C(=C)F)[C@@H](CC#N)C4)C3)c12 [Compound 2, 2-((S)-1-(2-fluoroacryloyl)-4-(7-(8-(methyl-d3)naphthalen-1-yl)-2-(((S)-1-methylpyrrolidin-2-yl)methoxy)-5,6,7,8-tetrahydropyrido[3,4-d]pyrimidin-4-yl)piperazin-2-yl)acetonitrile] |
| < 1000 nM | [2H]C([2H])([2H])c1cccc2cccc(N3CCc4c(nc(OC[C@@H]5CCCN5C)nc4N4CCN(C(=O)C(=C)F)[C@@H](C)C4)C3)c12 [Compound 5, 2-fluoro-1-((S)-2-methyl-4-(7-(8-(methyl-d3)naphthalen-1-yl)-2-(((S)-1-methylpyrrolidin-2-yl)methoxy)-5,6,7,8-tetrahydropyrido[3,4-d]pyrimidin-4-yl)piperazin-1-yl)-2-propen-1-one] |
| < 1000 nM | C=CC(=O)N1CCN(c2nc(OC[C@@H]3CCCN3C)nc3c2CCN(c2cccc4cccc([11CH3])c24)C3)C[C@@H]1CC#N [Compound 6, 2-((S)-1-acryloyl-4-(7-(8-(methyl-^11C)naphthalen-1-yl)-2-(((S)-1-methylpyrrolidin-2-yl)methoxy)-5,6,7,8-tetrahydropyrido[3,4-d]pyrimidin-4-yl)piperazin-2-yl)acetonitrile] |
| < 1000 nM | C=C(F)C(=O)N1CCN(c2nc(OC[C@@H]3CCCN3C)nc3c2CCN(c2cccc4cccc([11CH3])c24)C3)C[C@@H]1CC#N [Compound 9, 2-((S)-1-(2-fluoroacryloyl)-4-(7-(8-(methyl-^11C)naphthalen-1-yl)-2-(((S)-1-methylpyrrolidin-2-yl)methoxy)-5,6,7,8-tetrahydropyrido[3,4-d]pyrimidin-4-yl)piperazin-2-yl)acetonitrile] |
| < 1000 nM | C=CC(=O)N1CCN(c2nc(OC[C@@H]3CCCN3C)nc3c2CCN(c2cccc4cccc([13CH3])c24)C3)C[C@@H]1CC#N [Compound 10, 2-((S)-1-acryloyl-4-(7-(8-(methyl-^13C)naphthalen-1-yl)-2-(((S)-1-methylpyrrolidin-2-yl)methoxy)-5,6,7,8-tetrahydropyrido[3,4-d]pyrimidin-4-yl)piperazin-2-yl)acetonitrile] |
| < 1000 nM | C=CC(=O)N1CCN(c2nc(OC[C@@H]3CCCN3C)nc3c2CCN(c2cccc4cccc([14CH3])c24)C3)C[C@@H]1CC#N [Compound 12, 2-((S)-1-acryloyl-4-(7-(8-(methyl-^14C)naphthalen-1-yl)-2-(((S)-1-methylpyrrolidin-2-yl)methoxy)-5,6,7,8-tetrahydropyrido[3,4-d]pyrimidin-4-yl)piperazin-2-yl)acetonitrile] |
| < 1000 nM | C=CC(=O)N1CCN(c2nc(OC[C@@H]3CCCN3C)nc3c2CCN(c2cncc4cccc([13CH3])c24)C3)C[C@@H]1CC#N [Compound 15, 2-((S)-1-acryloyl-4-(7-(5-(methyl-^13C)isoquinolin-4-yl)-2-(((S)-1-methylpyrrolidin-2-yl)methoxy)-5,6,7,8-tetrahydropyrido[3,4-d]pyrimidin-4-yl)piperazin-2-yl)acetonitrile] |
| < 1000 nM | C=C(F)C(=O)N1CCN(c2nc(OC[C@@H]3CCCN3C)nc3c2CCN(c2cncc4cccc([13CH3])c24)C3)C[C@@H]1CC#N [Compound 16, 2-((S)-1-(2-fluoroacryloyl)-4-(7-(5-(methyl-^13C)isoquinolin-4-yl)-2-(((S)-1-methylpyrrolidin-2-yl)methoxy)-5,6,7,8-tetrahydropyrido[3,4-d]pyrimidin-4-yl)piperazin-2-yl)acetonitrile] |
| < 1000 nM | [2H]C([2H])([2H])c1cccc2cccc(N3CCc4c(nc(OC[C@@H]5CCCN5C([2H])([2H])[2H])nc4N4CCN(C(=O)C=C)[C@@H](C)C4)C3)c12 [Compound 21, 1-((S)-2-methyl-4-(7-(8-(methyl-d3)naphthalen-1-yl)-2-(((S)-1-(methyl-d3)pyrrolidin-2-yl)methoxy)-5,6,7,8-tetrahydropyrido[3,4-d]pyrimidin-4-yl)piperazin-1-yl)-2-propen-1-one] |
| < 1000 nM | [2H]C([2H])([2H])N1CCC[C@H]1COc1nc2c(c(N3CCN(C(=O)C=C)[C@@H](CC#N)C3)n1)CCN(c1cccc3cccc([11CH3])c13)C2 [Compound 22, 2-((S)-1-acryloyl-4-(2-(((S)-1-(methyl-d3)pyrrolidin-2-yl)methoxy)-7-(8-(methyl-^11C)naphthalen-1-yl)-5,6,7,8-tetrahydropyrido[3,4-d]pyrimidin-4-yl)piperazin-2-yl)acetonitrile] |
| < 1000 nM | [2H]C([2H])([2H])c1cccc2cccc(N3CCc4c(nc(OC[C@@H]5CCCN5C([2H])([2H])[2H])nc4N4CCN(C(=O)C(=C)F)C[C@@H]4C)C3)c12 [Compound 23, 2-fluoro-1-((S)-3-methyl-4-(7-(8-(methyl-d3)naphthalen-1-yl)-2-(((S)-1-(methyl-d3)pyrrolidin-2-yl)methoxy)-5,6,7,8-tetrahydropyrido[3,4-d]pyrimidin-4-yl)piperazin-1-yl)-2-propen-1-one] |
